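Briefly, cells in 96-well plates were exposed to five compound concentrations for 48 h, and endpoints were estimated by linear interpolation. Abbreviation: GI50, concentration required for 50% inhibition of growth.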 Active and inactive are the calls of the source. No stated cut-off is given here; in the data, active = GI50 up to about 1.1 µM and inactive = higher.
Experiments:
Assay in all cases: inhibition of tumour cell growth, NCI panel, 48 h
[1] = system: RPMI-8226
[2] = system: TK-10
[3] = system: HT-29
[4] = system: NCI-H23
[5] = system: SF-539
[6] = system: OVCAR-5
[7] = system: MDA-N
[8] = system: RXF 393
[9] = system: PC-3
[10] = system: NCI-H226
[11] = system: Hs-578T
[12] = system: HCT-116
[13] = system: CCRF-CEM
[14] = system: DU-145
[15] = system: MCF7
[16] = system: M14
[17] = system: SW-620
[18] = system: SF-268
[19] = system: U-251
[20] = system: ACHN

SMILES | GI50 [1] | GI50 [2] | GI50 [3] | GI50 [4] | GI50 [5] | GI50 [6] | GI50 [7] | GI50 [8] | GI50 [9] | GI50 [10] | GI50 [11] | GI50 [12] | GI50 [13] | GI50 [14] | GI50 [15] | GI50 [16] | GI50 [17] | GI50 [18] | GI50 [19] | GI50 [20]
O=C(c1cccs1)N1CCN(C(=O)c2cccs2)C1=S | 1.63 µM (inactive) | 5.4 µM (inactive) | 6.71 µM (inactive) | 12.7 µM (inactive) | 1.81 µM (inactive) | 16 µM (inactive) | 3.69 µM (inactive) | 2.6 µM (inactive) | 4.5 µM (inactive) | 15.8 µM (inactive) | 10.7 µM (inactive) | 8.77 µM (inactive) | 2.69 µM (inactive) | 2.51 µM (inactive) | 3.18 µM (inactive) | 3.83 µM (inactive) | 5.01 µM (inactive) | 5.28 µM (inactive) | 5.92 µM (inactive) | 7.41 µM (inactive)
CN(C)CCCCN1c2ccccc2Sc2ccc(C(=O)c3ccccc3)cc21 | 2.24 µM (inactive) | 3.8 µM (inactive) | 1.89 µM (inactive) | 6.59 µM (inactive) | 3.29 µM (inactive) | 5.64 µM (inactive) | 2.65 µM (inactive) | 1.22 µM (inactive) | 2.32 µM (inactive) | 5.96 µM (inactive) | 2.22 µM (inactive) | 2.18 µM (inactive) | 2.27 µM (inactive) | 3.63 µM (inactive) | 1.93 µM (inactive) | 1.67 µM (inactive) | 1.77 µM (inactive) | 5.6 µM (inactive) | 2.41 µM (inactive) | 2.94 µM (inactive)
O=C1C=C(C2=CC(=O)C(=O)c3ccccc32)c2ccccc2C1=O | 6.17 µM (inactive) | 7.46 µM (inactive) | 28.6 µM (inactive) | 5.07 µM (inactive) | 19.4 µM (inactive) | 18.8 µM (inactive) | 2.02 µM (inactive) | 10.9 µM (inactive) | 15.2 µM (inactive) | 38.5 µM (inactive) | 27.7 µM (inactive) | 6.65 µM (inactive) | 1.98 µM (inactive) | 14.9 µM (inactive) | 9.98 µM (inactive) | 6.46 µM (inactive) | 5.01 µM (inactive) | 13.5 µM (inactive) | 5.47 µM (inactive) | 21 µM (inactive)
C=C1C(=O)O[C@H]2C3C(=C(C)CC[C@@H]12)C(=O)[C@@H]1OC31C (stereo not given in full) | 0.746 µM (active) | 2.27 µM (inactive) | 1.66 µM (inactive) | 2.21 µM (inactive) | 2.43 µM (inactive) | 10.4 µM (inactive) | 1.75 µM (inactive) | 1.56 µM (inactive) | 2.69 µM (inactive) | 7.48 µM (inactive) | 3.03 µM (inactive) | 1.11 µM (active) | 0.318 µM (active) | 12.5 µM (inactive) | 1.8 µM (inactive) | 1.68 µM (inactive) | 0.685 µM (active) | 5.19 µM (inactive) | 13.4 µM (inactive) | 2.6 µM (inactive)
Cc1ccc2c(ccc3[nH]cc(CNc4ccc(NS(C)(=O)=O)cc4)c32)n1 | 19.1 µM (inactive) | 37.7 µM (inactive) | 28.3 µM (inactive) | 18.7 µM (inactive) | 22.9 µM (inactive) | 23.8 µM (inactive) | 17.5 µM (inactive) | 9.14 µM (inactive) | 25 µM (inactive) | 20.3 µM (inactive) | 27.4 µM (inactive) | 18.7 µM (inactive) | 23.6 µM (inactive) | 18.7 µM (inactive) | 19.3 µM (inactive) | 17.6 µM (inactive) | 31.2 µM (inactive) | 23 µM (inactive) | 25.9 µM (inactive) | 33.7 µM (inactive)
CCN(CC)CCNc1ccc2nnn3c4ccc(OC(C)=O)cc4c(=O)c1c23 | 1.59 µM (inactive) | 3.52 µM (inactive) | 1.47 µM (inactive) | 3.77 µM (inactive) | 1.67 µM (inactive) | 11.7 µM (inactive) | 4.61 µM (inactive) | 1.11 µM (active) | 3.62 µM (inactive) | 0.615 µM (active) | 4.39 µM (inactive) | 3.46 µM (inactive) | 0.644 µM (active) | 2.39 µM (inactive) | 2.16 µM (inactive) | 6.64 µM (inactive) | 1.11 µM (active) | 3.01 µM (inactive) | 2.22 µM (inactive) | 1.02 µM (active)
C[C@@H](C[C@@H](O)[C@H](O)C(C)(C)O)[C@H]1CC=C2[C@]3(C)[C@H](O)C[C@H]4C(C)(C)[C@H](O)CC[C@]4(C)[C@H]3CC[C@@]21C | 13.9 µM (inactive) | 18 µM (inactive) | 13.4 µM (inactive) | 17.6 µM (inactive) | 18.1 µM (inactive) | 19.2 µM (inactive) | 15.6 µM (inactive) | 17 µM (inactive) | 14.3 µM (inactive) | 20.7 µM (inactive) | 22.5 µM (inactive) | 16.1 µM (inactive) | 18 µM (inactive) | 16.9 µM (inactive) | 17.2 µM (inactive) | 15.1 µM (inactive) | 17.3 µM (inactive) | 13.4 µM (inactive) | 16.7 µM (inactive) | 14.3 µM (inactive)
CC(=O)NCCC1CNc2ccccc21 (stereo not given) | > 100 µM (inactive) | > 100 µM (inactive) | > 100 µM (inactive) | > 100 µM (inactive) | > 100 µM (inactive) | > 100 µM (inactive) | > 100 µM (inactive) | > 100 µM (inactive) | > 100 µM (inactive) | > 100 µM (inactive) | > 100 µM (inactive) | > 100 µM (inactive) | > 100 µM (inactive) | > 100 µM (inactive) | > 100 µM (inactive) | > 100 µM (inactive) | > 100 µM (inactive) | > 100 µM (inactive) | > 100 µM (inactive) | > 100 µM (inactive)
c1cc(C[S+]2CCCC2)sc1C[S+]1CCCC1 | > 100 µM (inactive) | > 100 µM (inactive) | > 100 µM (inactive) | > 100 µM (inactive) | > 100 µM (inactive) | > 100 µM (inactive) | > 100 µM (inactive) | > 100 µM (inactive) | > 100 µM (inactive) | > 100 µM (inactive) | > 100 µM (inactive) | > 100 µM (inactive) | > 100 µM (inactive) | > 100 µM (inactive) | > 100 µM (inactive) | > 100 µM (inactive) | > 100 µM (inactive) | > 100 µM (inactive) | > 100 µM (inactive) | > 100 µM (inactive)
O=C(NNS(=O)(=O)c1ccc(Br)cc1)c1ccc(Cl)cc1NC(=O)C12CC3CC(CC(C3)C1)C2 | 4.49 µM (inactive) | 12.5 µM (inactive) | 11.8 µM (inactive) | 14.2 µM (inactive) | 17.3 µM (inactive) | 18.2 µM (inactive) | 14.2 µM (inactive) | 15.7 µM (inactive) | 15.9 µM (inactive) | 16.1 µM (inactive) | 17.4 µM (inactive) | 21.2 µM (inactive) | 14.6 µM (inactive) | 14.5 µM (inactive) | 11.7 µM (inactive) | 15 µM (inactive) | 19.5 µM (inactive) | 11.4 µM (inactive) | 10.8 µM (inactive) | 16 µM (inactive)
CC(=O)c1ccccc1NS(=O)(=O)c1ccc2nc(C)n(NS(=O)(=O)c3ccccc3C(C)=O)c(=O)c2c1 | > 100 µM (inactive) | > 100 µM (inactive) | > 100 µM (inactive) | > 100 µM (inactive) | > 100 µM (inactive) | > 100 µM (inactive) | > 100 µM (inactive) | > 100 µM (inactive) | > 100 µM (inactive) | > 100 µM (inactive) | > 100 µM (inactive) | > 100 µM (inactive) | > 100 µM (inactive) | > 100 µM (inactive) | > 100 µM (inactive) | > 100 µM (inactive) | > 100 µM (inactive) | > 100 µM (inactive) | > 100 µM (inactive) | > 100 µM (inactive)
O=c1oc2ccccc2cc1-c1ccc([N+](=O)[O-])cc1 | > 100 µM (inactive) | > 100 µM (inactive) | > 100 µM (inactive) | > 100 µM (inactive) | 17.9 µM (inactive) | > 100 µM (inactive) | > 100 µM (inactive) | > 100 µM (inactive) | > 100 µM (inactive) | > 100 µM (inactive) | 99.5 µM (inactive) | 36.7 µM (inactive) | > 100 µM (inactive) | > 100 µM (inactive) | > 100 µM (inactive) | > 100 µM (inactive) | 25.8 µM (inactive) | 24.8 µM (inactive) | 9.53 µM (inactive) | > 100 µM (inactive)
CCC(=O)NCCc1c2c3c(ccnc3c3ncsc13)-c1ccccc1N2 [KUANONIAMINE C] | 0.401 µM (active) | 6.32 µM (inactive) | 0.541 µM (active) | 1.92 µM (inactive) | 1.06 µM (active) | 8.17 µM (inactive) | 0.324 µM (active) | 4.16 µM (inactive) | 1.41 µM (inactive) | 0.91 µM (active) | 0.368 µM (active) | 0.582 µM (active) | 2.86 µM (inactive) | 0.603 µM (active) | 0.0223 µM (active) | 2.73 µM (inactive) | 1.18 µM (inactive) | 1.45 µM (inactive) | 1.41 µM (inactive) | 0.583 µM (active)
CCOC(=O)C(=[N+]=[N-])C(=O)CN1C(=O)C2CC(C)=C(C)CC2C1O (stereo not given) | > 100 µM (inactive) | > 100 µM (inactive) | > 100 µM (inactive) | > 100 µM (inactive) | > 100 µM (inactive) | > 100 µM (inactive) | > 100 µM (inactive) | > 100 µM (inactive) | > 100 µM (inactive) | 68.2 µM (inactive) | > 100 µM (inactive) | > 100 µM (inactive) | > 100 µM (inactive) | > 100 µM (inactive) | > 100 µM (inactive) | > 100 µM (inactive) | > 100 µM (inactive) | > 100 µM (inactive) | > 100 µM (inactive) | > 100 µM (inactive)
